# Results from PubChem BioAssay AID1259407 (Chemical Carcinogenesis Research Information System (CCRIS), 2018).
# Activity calls are given as the source filed them. How the calls were made is not given here.
# System: CCRIS mutagenicity, Ames/micronucleus/aberration tests
# Assay: CCRIS mutagenicity studies
smiles,measurement,setting,value
Cc1c2ccccc2c(C)c2c1ccc1ccccc12,mutagenic call,"Test System: AMES SALMONELLA TYPHIMURIUM, Strain/Indicator: TA1535, Metabolic Activation: RAT, LIVER, S-9, AROCLOR 1254, Method: SPIRAL ASSAY",inactive; negative
same,mutagenic call,"Test System: AMES SALMONELLA TYPHIMURIUM, Strain/Indicator: TA1535, Metabolic Activation: RAT, LIVER, S-9, AROCLOR 1254, Method: STANDARD PLATE",inactive; negative
same,mutagenic call,"Test System: AMES SALMONELLA TYPHIMURIUM, Strain/Indicator: TA1537, Metabolic Activation: NONE, Method: SPIRAL ASSAY",active; positive
same,mutagenic call,"Test System: AMES SALMONELLA TYPHIMURIUM, Strain/Indicator: TA1537, Metabolic Activation: NONE, Method: STANDARD PLATE",active; positive
same,mutagenic call,"Test System: AMES SALMONELLA TYPHIMURIUM, Strain/Indicator: TA1537, Metabolic Activation: RAT, LIVER, S-9, AROCLOR 1254, Method: SPIRAL ASSAY",active; positive
same,mutagenic call,"Test System: AMES SALMONELLA TYPHIMURIUM, Strain/Indicator: TA1537, Metabolic Activation: RAT, LIVER, S-9, AROCLOR 1254, Method: STANDARD PLATE",active; positive
same,mutagenic call,"Test System: AMES SALMONELLA TYPHIMURIUM, Strain/Indicator: TA1537, Metabolic Activation: RAT, LIVER, S-9, KC500 OR PHENOBARBITAL, Method: LIQUID SUSPENSION",active; positive
same,mutagenic call,"Test System: AMES SALMONELLA TYPHIMURIUM, Strain/Indicator: TA1538, Metabolic Activation: RAT, LIVER, S-9, AROCLOR 1254, Method: STANDARD PLATE",active; positive
same,mutagenic call,"Test System: CHINESE HAMSTER OVARY, Strain/Indicator: CHO-K1-BH4 (HGPRT), Metabolic Activation: RAT, LIVER, S-9, AROCLOR, Method: SUSPENSION/PLATE",active; positive
same,mutagenic call,"Test System: CHINESE HAMSTER V-79, Strain/Indicator: V-79/6-THIOGUANINE, Metabolic Activation: NONE, Method: STANDARD PLATE",inactive; negative
same,mutagenic call,"Test System: CHINESE HAMSTER V-79, Strain/Indicator: V-79/6-THIOGUANINE, Metabolic Activation: RAT, HEPATOCYTES, BUTYLATED HYDROXYANISOLE, Method: STANDARD PLATE",active; positive
same,mutagenic call,"Test System: CHINESE HAMSTER V-79, Strain/Indicator: V-79/6-THIOGUANINE, Metabolic Activation: RAT, HEPATOCYTES, Method: STANDARD PLATE",active; positive
same,mutagenic call,"Test System: CHINESE HAMSTER V-79, Strain/Indicator: V-79/6-THIOGUANINE, Metabolic Activation: RAT, LIVER, S-9, PHENOBARBITAL, Method: STANDARD PLATE",active; positive
same,mutagenic call,"Test System: CHINESE HAMSTER V-79, Strain/Indicator: V-79/8-AZAGUANINE, Metabolic Activation: CELL-MEDIATED, Method: STANDARD PLATE",active; positive
same,mutagenic call,"Test System: CHINESE HAMSTER V-79, Strain/Indicator: V-79/OUABAIN, Metabolic Activation: NONE, Method: STANDARD PLATE",inactive; negative
same,mutagenic call,"Test System: CHINESE HAMSTER V-79, Strain/Indicator: V-79/OUABAIN, Metabolic Activation: RAT, HEPATOCYTES, BUTYLATED HYDROXYANISOLE, Method: STANDARD PLATE",active; positive
same,mutagenic call,"Test System: CHINESE HAMSTER V-79, Strain/Indicator: V-79/OUABAIN, Metabolic Activation: RAT, HEPATOCYTES, Method: STANDARD PLATE",active; positive
same,mutagenic call,"Test System: E. COLI, Strain/Indicator: WP2 UVRA, Metabolic Activation: HAMSTER, LIVER, S-9, AROCLOR 1254, Method: STANDARD PLATE",inactive; negative
same,mutagenic call,"Test System: E. COLI, Strain/Indicator: WP2 UVRA, Metabolic Activation: HAMSTER, LIVER, S-9, Method: STANDARD PLATE",inactive; negative
same,mutagenic call,"Test System: E. COLI, Strain/Indicator: WP2 UVRA, Metabolic Activation: MOUSE, LIVER, S-9, AROCLOR 1254, Method: STANDARD PLATE",inactive; negative
same,mutagenic call,"Test System: E. COLI, Strain/Indicator: WP2 UVRA, Metabolic Activation: MOUSE, LIVER, S-9, Method: STANDARD PLATE",inactive; negative
same,mutagenic call,"Test System: E. COLI, Strain/Indicator: WP2 UVRA, Metabolic Activation: NONE, Method: STANDARD PLATE",inactive; negative
same,mutagenic call,"Test System: E. COLI, Strain/Indicator: WP2 UVRA, Metabolic Activation: RAT, LIVER, S-9, AROCLOR 1254, Method: STANDARD PLATE",inactive; negative
same,mutagenic call,"Test System: E. COLI, Strain/Indicator: WP2 UVRA, Metabolic Activation: RAT, LIVER, S-9, Method: STANDARD PLATE",inactive; negative
same,mutagenic call,"Test System: MOUSE LYMPHOMA, Strain/Indicator: L5178Y (TK+/TK-), Metabolic Activation: NONE, Method: SUSPENSION/PLATE",inactive; negative
same,mutagenic call,"Test System: MOUSE LYMPHOMA, Strain/Indicator: L5178Y (TK+/TK-), Metabolic Activation: RAT, LIVER, S-9, AROCLOR 1254, Method: SUSPENSION/PLATE",active; positive
same,mutagenic call,"Test System: MOUSE SPLENIC LYMPHOCYTES, Strain/Indicator: C57BL/6 (TK+/-)/C57BL/6 (HPRT), Metabolic Activation: NONE, Method: IN VIVO/SUSPENSION/PLATE",active; positive
same,mutagenic call,"Test System: UDS MONKEY HEPATOCYTES, Strain/Indicator: THY INCORP, Metabolic Activation: AROCLOR 1254, Method: AUTORADIOGRAPHY",active; positive
same,mutagenic call,"Test System: UDS MONKEY HEPATOCYTES, Strain/Indicator: THY INCORP, Metabolic Activation: NONE, Method: AUTORADIOGRAPHY",active; positive
same,mutagenic call,"Test System: UDS MOUSE EPIDERMIS IN VIVO/IN VITRO, Strain/Indicator: HOS:HR-1/THYMIDINE INCORPORATION, Metabolic Activation: NONE, Method: LIQUID SCINTILLATION",active; positive
same,mutagenic call,"Test System: UDS RAT HEPATOCYTES, Strain/Indicator: BROMODEOXYURIDINE INCORP, Metabolic Activation: NONE, Method: FLOW CYTOMETRIC ANALYSIS",active; positive
same,mutagenic call,"Test System: UDS RAT HEPATOCYTES, Strain/Indicator: THY INCORP, Metabolic Activation: NONE, Method: AUTORADIOGRAPHY",active; positive
same,mutagenic call,"Test System: UDS RODENT HEPATOCYTES, Strain/Indicator: THY INCORP (NON-S-PHASE), Method: AUTORADIOGRAPHY",active; positive
same,mutagenic call,"Test System: UDS RODENT PRIMARY CELLS, Strain/Indicator: THY INCORP (NON-S-PHASE), Metabolic Activation: NONE, Method: AUTORADIOGRAPHY",active; positive
